Experimental data published in patent publication US20240123249A1, “ANALGESIA VIA LOW AND ULTRA-LOW FREQUENCY MAGNETIC OR ELECTROMAGNETIC FIELDS AND RELATED SYSTEMS AND METHODS” (EMulate Therapeutics, Inc., priority 2022, published 2024).

What was measured:
mechanical hyperalgesia = test: Carrageenan induced mechanical hyperalgesia, paw pressure test (Randall & Selitto); assay type: in vivo, rat
cold allodynia = test: Oxaliplatin induced neuropathic cold allodynia, paw immersion test; settings: rat, in vivo
tactile allodynia = test: Bennett model of peripheral mononeuropathy, tactile allodynia by electronic Von Frey; assay type: in vivo, rat
[1] = 30 minutes after morphine 3 mg/kg / 24 hours after signal exposure
[2] = pair-wise Students T-test, α=0.01

## COc1ccc2c(c1)c(CC(=O)O)c(C)n2C(=O)c1ccc(Cl)cc1 [Indomethacin]
Mechanical hyperalgesia; 3 h after 2% carrageenan, signals 24 h exposure, Indomethacin 30 mg/kg, MC 1% group 218±18
  applied pressure, carrageenan injected (injured) paw: 306±21 grams
Mechanical hyperalgesia; Dunnett's test after ANOVA, N=10
  Carrageenan: statistical significance (P) versus MC 1% group, injured paw: 0.01
Mechanical hyperalgesia; left paw not injected with carrageenan, Dunnett's test
  Carrageenan model: significance versus MC 1% group, uninjured paw: no significant differences between groups in the uninjured paws, except in the Indomethacin injected group

## CNCC[C@H](Oc1cccc2ccccc12)c1cccs1 [duloxetine]
Cold allodynia
  Oxaliplatin: statistical significance (P) versus MC 1% control group: significantly increased
  leg withdrawal time (latency of hind paw withdrawal): 13.2 ± 1.6 s

## CN1CC[C@]23c4c5ccc(O)c4O[C@H]2[C@@H](O)C=C[C@H]3[C@H]1C5 [morphine]
Tactile allodynia; [1]
  average force applied, control paw, Post-Tx: 578±73 grams
  average force applied, injured paw, Post-Tx: 438±51 grams
Tactile allodynia; before treatment
  average force applied, control paw, Pre-Tx: 300±30 grams
  average force applied, injured paw, Pre-Tx: 180±27 grams
Tactile allodynia; [2]
  Bennett: statistical significance (P) Pre-Tx vs. Post-Tx, Control Paw: < 0.00001
  Bennett: statistical significance (P) Pre-Tx vs. Post-Tx, Injured Paw: reached statistical significance
